Data published in patent US6340670B1, “Acetal benzylmaltosides as inhibitors of smooth muscle cell proliferation” (American Home Products Corporation, priority 1998, dated 2002).

What follows are compounds tested on Porcine Smooth Muscle Cell (assay: Effects of Compounds on Cell Proliferation Using 3H Thymidine Incorporation). Conditions: @ 50 μM, control (100%) = maximally stimulated cells.
Format: cell-based
Method: Effects of Compounds on Cell Proliferation Using ^3H Thymidine Incorporation
Human and porcine smooth muscle cells were tested in early passage (generally passage 3-7) at sub-confluent conditions. Cultures were grown in 16 mm (24 well) multi-well culture dishes in medium 199 supplemented with 10% fetal bovine serum and 2% antibiotic/antimycotic. At sub-confluence, the cells were placed in a defined serum free medium (AIM-V; Gibco) for 24-48 h prior to initiating the experimental protocol.
Compounds were added to each well at 50 fold dilution (20 μL/well) and the plates were incubated for 24-36 h at 37° C. in 5% CO2. Compounds were initially dissolved in 50% ethanol and serially diluted into media. Compounds were routinely evaluated at concentrations from 1 to 100 μM. As a control, grade II porcine intestinal mucosal heparin (sodium salt) was routinely evaluated in all cell preparations at concentrations from 0.1 to 100 μg/mL.
At the completion of the test procedure, plates were placed on ice, washed three times with ice cold phosphate buffered saline (PBS) and incubated in ice cold 10% trichloroacetic acid (TCA) got 30 min to remove acid soluble proteins. Solution was transferred to scintillation vials containing 0.4 N HCl (500 μL/vial to neutralize NaOH) and each well was rinsed two times with water (500 μL) for a total volume of 2 mL/vial.
Data was obtained, in triplicate, for both control and experimental samples. Control (100%) data was obtained from maximally stimulated cells, as the result of growth factor or serum stimulation. Experimental data was obtained from cells maximally stimulated with growth factor or serum and treated with compound. Data are expressed as an IC50 or percent inhibition in Table I below.
In the case of CCC1OCC2OC(OC3C(CO)OC(OCc4ccc(Cl)c(NC(C)=O)c4)C(O)C3O)C(O)C(O)C2O1 [Example 4, N-{2-Chloro-5-[(4′,6′-O-propylidene-β-D-maltosyl)-oxy-methyl]-pheny}-acetamide], the “Porcine Smooth Muscle Cell Antiproliferation, percent inhibition” value is reported as 16% @ 50.
With CC(=O)Nc1cc(COC2OC(CO)C(OC3OC4COC(CCC#N)OC4C(O)C3O)C(O)C2O)ccc1Cl [Example 18, N-{2-Chloro-5[-(4′,6′-O-((1R)-3-cyano-propylidene)-β-D-maltosyloxy)-methyl]-phenyl}-acetamide] the “Porcine Smooth Muscle Cell Antiproliferation, percent inhibition” value was 43% @ 50.
With CCOCC[C@@H]1OC[C@H]2O[C@H](O[C@H]3[C@H](O)[C@@H](O)[C@H](OCc4ccc(Cl)c(NC(C)=O)c4)O[C@@H]3CO)[C@H](O)[C@@H](O)[C@@H]2O1 [Example 20, N-{2-Chloro-5-[(4′,6′-O-((1R)-3-ethoxy-propylidene)-β-D-maltosyloxy)-methyl]-phenyl}-acetamide] the “Porcine Smooth Muscle Cell Antiproliferation, percent inhibition” value was 48% @ 50.

Same assay, conditions: @ 100 μM, control (100%) = maximally stimulated cells
In the case of CC(=O)Nc1cc(COC2OC(CO)C(OC3OC4COC(C)OC4C(O)C3O)C(O)C2O)ccc1Cl [Example 1, N-{2-Chloro-5-[(4′,6′-O-ethylidene)-β-D-maltosyloxymethyl]-phenyl}-acetamide], the “Porcine Smooth Muscle Cell Antiproliferation, percent inhibition” value is reported as 32% @ 100.

Same assay, conditions: serum/growth factor stimulated cells, 24-36 h incubation, read-out: Porcine Smooth Muscle Cell Antiproliferation IC50
With CC(=O)Nc1cc(COC2OC(COC(=O)c3ccccc3)C(OC3OC4COC(C)OC4C(O)C3O)C(O)C2O)ccc1Cl [Example 2, (R)-N-[5-[[[6-O-Benzoyl-4-O-(4,6-O-ethylidene-α-D-glucopyranosyl)-β-D-glucopyranosyl]oxy]methyl]-2-chlorophenyl]acetamide] the IC50 was 103 nM.
Work on CC(=O)Nc1cc(COC2OC(COC(=O)c3ccccc3)C(OC3OC4COC(C)OC4C(OC(C)=O)C3OC(C)=O)C(OC(C)=O)C2OC(C)=O)ccc1Cl [Example 3, (R)-N-[2-Chloro-5-[[[2,3-di-O-acetyl-6-O-benzoyl-4-O-(2,3-di-O-acetyl-4,6-O-ethylidene-α-D-glucopyranosyl)-β-D-glucopyranosyl]oxy]methyl]phenyl]acetamide] yielded an IC50 of 2920 nM.
CCC1OCC2OC(OC3C(COC(=O)c4ccccc4)OC(OCc4ccc(Cl)c(NC(C)=O)c4)C(O)C3O)C(O)C(O)C2O1 [Example 5, N-{5-[(6-O-Benzoyl-4′,6′-O-propylidene-β-D-maltosyl)-oxy-methyl]-2-chloro-phenyl}-acetamide] showed an IC50 of 37 nM.
CC(=O)Nc1cc(COC2OC(COS(=O)(=O)c3ccc(C)cc3)C(OC3OC4COC(c5ccccc5)OC4C(O)C3O)C(O)C2O)ccc1Cl [Example 6, N-(5-{[4′,6′-O-Benzylidene-6-O-(4-toluenesulfonyl)-β-D-maltosyl]-oxy-methyl}2-chloro-phenyl)-acetamide] gave an IC50 of 133 nM.
For CC(=O)Nc1cc(COC2OC(COS(=O)(=O)c3ccc(C)cc3)C(OC3OC4COC(c5ccccc5)OC4C(OC(C)=O)C3OC(C)=O)C(OC(C)=O)C2OC(C)=O)ccc1Cl [Example 7, N-(5-{[2,32′,3′-Tetra-O-acetyl-4′,6′-O-benzylidene-6-O-(4-toluenesulfonyl)-β-D-maltosyl]-oxy-methyl}-2-chloro-phenyl)-acetamide], the IC50 was 88 nM.
With CC(=O)Nc1cc(COC2OC(COCc3ccccc3)C(OC3OC4COC(c5ccccc5)OC4C(O)C3O)C(O)C2O)ccc1Cl [Example 8, N-{5-[(6-O-Benzyl-4′,6′-O-benzylidene-β-D-maltosyl)-oxy-methyl]-2-chloro-phenyl}-acetamide] the IC50 was 1 nM.
CC(=O)Nc1cc(COC2OC(CO)C(OC3OC4COC(c5ccc([N+](=O)[O-])cc5)OC4C(O)C3O)C(O)C2O)ccc1Cl [Example 10, N-(2-Chloro-5-{[4′,6′-O-(4-nitro)-benzylidene-β-D-maltosyl]-oxy-methyl}-phenyl)-acetamide] gave an IC50 of 19200 nM.
Compound CC(=O)Nc1cc(CO[C@@H]2O[C@H](COC(=O)c3ccccc3)[C@@H](O[C@H]3O[C@@H]4COC(c5ccc([N+](=O)[O-])cc5)O[C@H]4[C@H](O)[C@H]3O)[C@H](O)[C@H]2O)ccc1Cl (stereo partly drawn) [Example 11, N-(5-{[6-O-Benzoyl-4′,6′-O-(4-nitro)-benzylidene-β-D-maltosyl]-oxy-methyl}-2-chloro-phenyl)-acetamide] has an IC50 of 3 nM.
Compound CC(=O)Nc1cc(COC2OC(CO)C(OC3OC4COC(c5ccc(Cl)cc5)OC4C(O)C3O)C(O)C2O)ccc1Cl [Example 12, N-{2-Chloro-5-[(4′,6′-O-(4-chloro)-benzylidene-β-D-maltosyl)-oxy-methyl]-phenyl}-acetamide] has an IC50 of 29400 nM.
CC(=O)Nc1cc(COC2OC(COC(=O)c3ccccc3)C(OC3OC4COC(c5ccc(Cl)cc5)OC4C(O)C3O)C(O)C2O)ccc1Cl [Example 13, N-{1 5-[(6-O-Benzoyl-4′,6′-O-(4-chloro)-benzylidene-β-D-maltosyl)-oxy-methyl]-2-chloro-phenyl}-acetamide] gave an IC50 of 23 nM.
Work on CC(=O)Nc1cc(COC2OC(COC(=O)c3ccccc3)C(OC3OC4COC(C(C)C)OC4C(O)C3O)C(O)C2O)ccc1Cl [Example 15, N-{5-[(6-O-Benzoyl-4′,6′-O-isobutylidene-β-D-maltosyl)-oxy-methyl]-2-chloro-phenyl}-acetamide] yielded an IC50 of 3 nM.
Compound CC(=O)Nc1cc(COC2OC(CO)C(OC3OC4COC(Cc5ccccc5)OC4C(O)C3O)C(O)C2O)ccc1Cl [Example 16, N-{5-[(4′,6′-O-((1R)-2-Phenyl-ethylidene)-β-D-maltosyloxy)-methyl]-2-chloro-phenyl}-acetamide] has an IC50 of 16300 nM.
In the case of CC(=O)Nc1cc(COC2OC(COC(=O)c3ccccc3)C(OC3OC4COC(Cc5ccccc5)OC4C(O)C3O)C(O)C2O)ccc1Cl [Example 17, N-{5-[(6-O-Benzoyl-4′,6′-O-((1R)-2-phenyl-ethylidene)-β-D-maltosyloxy)-methyl]-2-chloro-phenyl}-acetamide], the IC50 is reported as 35 nM.
For CC(=O)Nc1cc(COC2OC(COC(=O)c3ccccc3)C(OC3OC4COC(CCC#N)OC4C(O)C3O)C(O)C2O)ccc1Cl [Example 19, N-{5-{[6-O-Benzoyl-4′,6′-O-((1R)-3-cyanopropylidene)-β-D-maltosyloxy]-methyl}-2-chloro-phenyl}-acetamide], the IC50 was 1 nM.
With CCOCCC1OCC2OC(OC3C(COC(=O)c4ccccc4)OC(OCc4ccc(Cl)c(NC(C)=O)c4)C(O)C3O)C(O)C(O)C2O1 [Example 21, N-{5-{[6-O-Benzoyl-4′,6′-O-((1R)-3-ethoxypropylidene)-β-D-maltosyloxy]-methyl}-2-chloro-phenyl}-acetamide] the IC50 was 62 nM.
In the case of CC(=O)Nc1cc(COC2OC(CO)C(OC3OC4COC(c5ccncc5)OC4C(O)C3O)C(O)C2O)ccc1Cl [Example 22, N-(2-Chloro-5-{[4′,6′-O-(4-pyridinemethylidene)-β-D-maltosyl]-oxy-methyl}-phenyl)-acetamide], the IC50 is reported as 5530 nM.
In the case of CC(=O)Nc1cc(CO[C@@H]2O[C@H](CO)[C@@H](O[C@H]3O[C@@H]4COC(c5ccccc5)O[C@H]4[C@H](O)[C@H]3O)[C@H](O)[C@H]2O)ccc1Cl (stereo partly drawn) [Example 24, N-{5-[(4′,6′-O-Benzylidene-β-D-maltosyloxy)-methyl]-2-chloro-phenyl}-acetamide], the IC50 is reported as 6600 nM.
In the case of CC(=O)Nc1cc(COC2OC(COC(C)=O)C(OC3OC4COC(c5ccccc5)OC4C(OC(C)=O)C3OC(C)=O)C(OC(C)=O)C2OC(C)=O)ccc1Cl [Example 25, N-{5-[(4′,6′-O-Benzylidene-2,2′,3,3′,6-penta-O-acetyl-β-D-maltosyl-oxy)-methyl]-2-chloro-phenyl}-acetamide], the IC50 is reported as 700 nM.
CC(=O)Nc1cc(CO[C@@H]2O[C@H](COC(=O)c3ccccc3)[C@@H](O[C@H]3O[C@@H]4COC(c5ccccc5)O[C@H]4[C@H](O)[C@H]3O)[C@H](O)[C@H]2O)ccc1Cl (stereo partly drawn) [Example 26, N-{5-[(6-O-Benzoyl-4′,6′-O-benzylidene-β-D-maltosyl-oxy)-methyl]-2-chloro-phenyl}-acetamide] showed an IC50 of 10 to 30 nM.
In the case of CC(=O)Nc1cc(CO[C@@H]2O[C@H](COC(=O)c3ccccc3)[C@@H](O[C@@H]3O[C@@H]4CO[C@@H](c5ccccc5)O[C@H]4[C@H](OC(C)=O)[C@H]3OC(C)=O)[C@H](OC(C)=O)[C@H]2OC(C)=O)ccc1Cl [Example 27, (R)-N-[2-Chloro-5-[[[2,3-di-O-acetyl-6-O-benzoyl-4-O-[2,3-di-O-acetyl-4,6-O-(phenylmethylene)-β-D-glucopyranoysl]-β-D-glucopyranosyl]oxy]-methyl]-phenyl]acetamide], the IC50 is reported as 70 nM.
COC(=O)CCCC(=O)OCC1OC(OCc2ccc(Cl)c(NC(C)=O)c2)C(O)C(O)C1OC1OC2COC(c3ccccc3)OC2C(O)C1O [Example 28, (R)-N-[2-Chloro-5-[[[6-O-(5-methoxy-1,5-dioxopentyl)-4-O-[4,6-O-(phenylmethylene)-α-D-glucopyranoysl]-β-D-gluconyranosyl]oxy]methyl]-phenyl]acetamide] was tested, and the IC50 was 400 nM.
For O=[N+]([O-])c1cc(COC2OC(CO)C(OC3OC4COC(c5ccccc5)OC4C(O)C3O)C(O)C2O)ccc1Cl [Example 29, 4-Chloro-3-nitro-benzyl-4′,6′-O-benyzlidene-β-D-maltoside], the IC50 was 44100 nM.
In the case of O=C(OCC1OC(OCc2ccc(Cl)c([N+](=O)[O-])c2)C(O)C(O)C1OC1OC2COC(c3ccccc3)OC2C(O)C1O)c1ccccc1 [Example 30, 4-Chloro-3-nitro-benzyl-6-O-benzoyl-4′,6′-O-benyzlidene-β-D-maltoside], the IC50 is reported as 351 nM.
